Reference: US6559101B2, “N- (5, 7-dimethoxy [1, 2, 4] triazolo [1, 5-a] pyrimidin-2-yl) arylsulfonamide compounds and their use as herbicides” (Dow AgroSciences LLC, priority 2000, dated 2003)

Legend:
[1] = test system: morningglory (Ipomoea hederacea); assay: Preemergence herbicidal activity; assay type: in vivo; settings: 17.5 g/Ha; scored after 3 weeks; 0 no injury, 100 complete kill or no germination
Outline: (§1)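 Pre-emergence test. Seeds sown, soil sprayed with compound (acetone/DMSO stock diluted in water + 0.1% Tween 155), top dose 4.48 kg/ha. Greenhouse ~15 h light, 23-29/22-28 °C day/night. Visual % injury vs untreated at 3 wk.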

[2] = test system: barnyardgrass (Echinochloa crus-galli); assay: Preemergence herbicidal activity; assay type: in vivo; settings: 17.5 g/Ha; scored after 3 weeks; 0 no injury, 100 complete kill or no germination
Outline: as §1

[3] = test system: giant foxtail (Setaria faberi); assay: Preemergence herbicidal activity; assay type: in vivo; settings: 17.5 g/Ha; scored after 3 weeks; 0 no injury, 100 complete kill or no germination
Outline: as §1

[4] = test system: pigweed (Amaranthus retroflexus); assay: Preemergence herbicidal activity; assay type: in vivo; settings: 17.5 g/Ha; scored after 3 weeks; 0 no injury, 100 complete kill or no germination
Outline: as §1

[5] = test system: blackgrass (Alopecurus myosuroides); assay: Preemergence herbicidal activity; assay type: in vivo; settings: 17.5 g/Ha; scored after 3 weeks; 0 no injury, 100 complete kill or no germination
Outline: as §1

wild oats (Avena fatua) [6] = assay: Preemergence herbicidal activity; assay type: in vivo; settings: 17.5 g/Ha; scored after 3 weeks; 0 no injury, 100 complete kill or no germination
Outline: as §1

[7] = test system: crabgrass (Digitaria sanguinalis); assay: Preemergence herbicidal activity; assay type: in vivo; settings: 17.5 g/Ha; scored after 3 weeks; 0 no injury, 100 complete kill or no germination
Outline: as §1

[8] = test system: wild poinsettia (Euphorbia heterophylla); assay: Preemergence herbicidal activity; assay type: in vivo; settings: 17.5 g/Ha; scored after 3 weeks; 0 no injury, 100 complete kill or no germination
Outline: as §1

[9] = test system: velvetleaf (Abutilion theophrasti); assay: Preemergence herbicidal activity; assay type: in vivo; settings: 17.5 g/Ha; scored after 3 weeks; 0 no injury, 100 complete kill or no germination
Outline: as §1

[10] = test system: Rox orange sorghum (Sorghum bicolor); assay: Preemergence herbicidal activity; assay type: in vivo; settings: 17.5 g/Ha; scored after 3 weeks; 0 no injury, 100 complete kill or no germination
Outline: as §1

[11] = test system: lambsquarters (Chenopodium album); assay: Preemergence herbicidal activity; assay type: in vivo; settings: 17.5 g/Ha; scored after 3 weeks; 0 no injury, 100 complete kill or no germination
Outline: as §1

[12] = test system: cocklebur (Xanthium strumarium); assay: Preemergence herbicidal activity; assay type: in vivo; settings: 17.5 g/Ha; scored after 3 weeks; 0 no injury, 100 complete kill or no germination
Outline: as §1

[13] = test system: morningglory (Ipomoea hederacea); assay: Postemergence herbicidal activity; assay type: in vivo; settings: 7.8 ppm; scored after 2 weeks; 0 no injury, 100 complete kill
Outline: (§2)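 Seedlings at first–second true leaf stage (grown 7-21 days, greenhouse 23-29° C. day) sprayed to coverage with compound in aqueous acetone/DMSO/isopropanol/crop oil/surfactant carrier; 1 ppm ≈ 1 g/ha. Sub-irrigated; injury scored visually after 2 weeks versus untreated plants, 0 (none) to 100% (complete kill).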

[14] = test system: giant foxtail (Setaria faberi); assay: Postemergence herbicidal activity; assay type: in vivo; settings: 7.8 ppm; scored after 2 weeks; 0 no injury, 100 complete kill
Outline: as §2

[15] = test system: pigweed (Amaranthus retroflexus); assay: Postemergence herbicidal activity; assay type: in vivo; settings: 7.8 ppm; scored after 2 weeks; 0 no injury, 100 complete kill
Outline: as §2

[16] = test system: chickweed (Stellaria media); assay: Postemergence herbicidal activity; assay type: in vivo; settings: 7.8 ppm; scored after 2 weeks; 0 no injury, 100 complete kill
Outline: as §2

[17] = test system: blackgrass (Alopecurus myosuroides); assay: Postemergence herbicidal activity; assay type: in vivo; settings: 7.8 ppm; scored after 2 weeks; 0 no injury, 100 complete kill
Outline: as §2

wild oats (Avena fatua) [18] = assay: Postemergence herbicidal activity; assay type: in vivo; settings: 7.8 ppm; scored after 2 weeks; 0 no injury, 100 complete kill
Outline: as §2

[19] = test system: wild buckwheat (Polygonum convolvulus); assay: Postemergence herbicidal activity; assay type: in vivo; settings: 7.8 ppm; scored after 2 weeks; 0 no injury, 100 complete kill
Outline: as §2

[20] = test system: velvetleaf (Abutilion theophrasti); assay: Postemergence herbicidal activity; assay type: in vivo; settings: 7.8 ppm; scored after 2 weeks; 0 no injury, 100 complete kill
Outline: as §2

[21] = test system: Rox orange sorghum (Sorghum bicolor); assay: Postemergence herbicidal activity; assay type: in vivo; settings: 7.8 ppm; scored after 2 weeks; 0 no injury, 100 complete kill
Outline: as §2

[22] = test system: lambsquarters (Chenopodium album); assay: Postemergence herbicidal activity; assay type: in vivo; settings: 7.8 ppm; scored after 2 weeks; 0 no injury, 100 complete kill
Outline: as §2

viola (Viola tricolor) = assay: Postemergence herbicidal activity; assay type: in vivo; settings: 7.8 ppm; scored after 2 weeks; 0 no injury, 100 complete kill
Outline: as §2

[23] = test system: cocklebur (Xanthium strumarium); assay: Postemergence herbicidal activity; assay type: in vivo; settings: 7.8 ppm; scored after 2 weeks; 0 no injury, 100 complete kill
Outline: as §2

## COc1cc(OC)n2nc(NS(=O)(=O)c3c(Cl)cccc3Cl)nc2n1 [Compound 1, N-(5,7-dimethoxy[1,2,4]triazolo-[1,5-a]pyrimidin-2-yl)-2,6-dichlorobenzene-sulfonamide]
other
  melting point: 211 to 213 °C
[1]
  Preemergence herbicidal activity IPOHE: 80%
[2]
  Preemergence herbicidal activity ECHCG: 98%
[3]
  Preemergence herbicidal activity SETFA: 95%
[4]
  Preemergence herbicidal activity AMARE: 100%
[5]
  Preemergence herbicidal activity ALOMY: 100%
Wild oats (Avena fatua) [6]
  Preemergence herbicidal activity AVEFA: 100%
[7]
  Preemergence herbicidal activity DIGSA: 98%
[8]
  Preemergence herbicidal activity EPHHL: 70%
[9]
  Preemergence herbicidal activity ABUTH: 99%
[10]
  Preemergence herbicidal activity SORBI: 98%
[11]
  Preemergence herbicidal activity CHEAL: 98%
[12]
  Preemergence herbicidal activity XANST: 100%
[13]
  Postemergence herbicidal activity IPOHE: 80%
[14]
  Postemergence herbicidal activity SETFA: 98%
[15]
  Postemergence herbicidal activity AMARE: 90%
[16]
  Postemergence herbicidal activity STEME: 95%
[17]
  Postemergence herbicidal activity ALOMY: 90%
Wild oats (Avena fatua) [18]
  Postemergence herbicidal activity AVEFA: 95%
[19]
  Postemergence herbicidal activity POLCO: 95%
[20]
  Postemergence herbicidal activity ABUTH: 85%
[21]
  Postemergence herbicidal activity SORBI: 90%
[22]
  Postemergence herbicidal activity CHEAL: 90%
Viola (Viola tricolor)
  Postemergence herbicidal activity VIOTR: 75%
[23]
  Postemergence herbicidal activity XANST: 85%
